The results in this text go back to patent US20220193072A1, “METHODS OF TREATING BREAST CANCER WITH TETRAHYDRONAPHTHALENE DERIVATIVES AS ESTROGEN RECEPTOR DEGRADER” (Arvinas Operations, Inc., priority 2020, published 2022).

The test system of data set [1] is ER-dependent cell lines. The experiment in a line: Cell proliferation of ER-dependent cell lines. It counts as cell-based.
Data set [2] is described as follows: Phase I dose escalation safety. It counts as in vivo, human. As to conditions: 30 mg/day cohort, n=3. The text has this:
A Phase I Clinical Trial with Compound (I-c) was undertaken. A traditional 3+3 dose escalation design was implemented. […] Dose increases were dependent on toxicities.
The key entry criteria for this trial were: ER+/HER2− advanced breast cancer; at least two prior endocrine therapies in any setting, and a CDK4/6 inhibitor; and up to three prior cytotoxic chemotherapy regimens.

Data set [3] concerns MCF7 xenograft. The experiment in a line: MCF7 orthotopic xenograft, combination with mTOR inhibitor everolimus. The data set is classed as in vivo, NOD/SCID mice. Here is the method: NOD/SCID female mice (Charles River, 6-7 weeks old upon arrival) were implanted with 17b-estradiol 0.72 mg 90-day pellets. The next day, each mouse was implanted with 5×10^6 MCF7 cells/[…] per in the axial mammary fat pad. Compound administration was initiated once the tumors reached 175-200 mm^3. Diet was supplemented with peanut butter to help maintain body weights. […] (FIG. 28 and Table 13).
Error bars represent standard deviation.
The ratio of Tween 80 to PEG-400 is 0.02 g Tween 80 to 1 ml PEG-400. PEG-400 is added to a pre-aliquoted volume of Tween 80. • For everolimus: 10% DMSO, 90% (2% Tween 80, PEG 400) (DMSO/PEG/Tween) Sampling: tumors were measured twice weekly. Terminal sacrifice was ˜18 hr after last dose. Tumor volume calculation: Tumor Volume=(width×width×length)/2, where all measurements are in mm and the tumor volume is in mm^3. Tumor Growth Inhibition (TGI) calculation: TGI (%)

Setting [4] is: Compound (I-c) 30 mg/kg oral QD x 26.

For the compound `O=C1CC[C@H](N2Cc3cc(N4CCN(CC5CCN(c6ccc([C@@H]7c8ccc(O)cc8CC[C@@H]7c7ccccc7)cc6)CC5)CC4)ccc3C2=O)C(=O)N1` [Compound (I-c), (3S)-3-[5-[4-[[1-[4-[(1R,2S)-6-hydroxy-2-phenyl-tetralin-1-yl]phenyl]-4-piperidyl]methyl]piperazin-1-yl]-1-oxo-isoindolin-2-yl]piperidine-2,6-dione], the “cell proliferation of ER-dependent cell lines” value in data set [1] is given as “inhibits”. Further, in data set [2], the dose limiting toxicity result is “no dose limiting toxicity” and the “treatment related adverse events” value was “no treatment related adverse events”. Besides, in data set [3] (setting [4]), the “Day 26 Tumor Volume (mean ± SD)” value is 169 ± 77 mm^3 and the “TGI (% vehicle)” value amounted to 102 % vehicle. Besides, the “tumor growth inhibition (TGI)” value in data set [3] (single agent 30 mg/kg oral once daily, 26 days) was 102%.
